The text below walks through data of ChEMBL document CHEMBL5634087, “Novel 5-aminopyrazoles endowed with anti-angiogenetic properties: Design, synthesis and biological evaluation” (Eur J Med Chem, 2023).

Calls of active or inactive are those of the source. The calls are words filed in the database; no cut-off is given here.

One data set deals with SK-MEL-28. The data set can be described thus: Antiproliferative activity against human SK-MEL-28 cells assessed as growth rate at 10 uM incubated for 48 hrs by MTT assay relative to control. It counts as functional. The settings on record: read-out: Activity.
Data set [1] concerns the target Mitogen-activated protein kinase; ERK1/ERK2 (Homo sapiens) (UniProt P27361+P28482). The experiment in a line: Inhibition of ERK1/2 phosphorylation in serum starved bFGF stimulated HFF cells assessed as residual phosphorylated ERK1/2 level at 20 uM preincubated for 10 mins followed by bFGF addition and measured after 20 mins by Western blotting analysis relative to control. It counts as cell-based. The settings on record: time 30.0 min.

Another data set has as its system MDA-MB-231. The data set can be described thus: Antiproliferative activity against human MDA-MB-231 cells assessed as growth rate at 10 uM incubated for 48 hrs by MTT assay relative to control. The settings on record: read-out: Activity. Format: functional.
For another data set, the system named is HepG2. The data set can be described thus: Antiproliferative activity against human HepG2 cells assessed as growth rate at 10 uM incubated for 48 hrs by MTT assay relative to control. It counts as functional. The settings on record: read-out: Activity.
For another data set, the system named is SK-BR-3. The data set can be described thus: Antiproliferative activity against human SK-BR-3 cells assessed as growth rate at 10 uM incubated for 48 hrs by MTT assay relative to control. Format: functional. The settings on record: read-out: Activity.
In a further data set the test system is A549. The experiment in a line: Antiproliferative activity against human A549 cells assessed as growth rate at 10 uM incubated for 48 hrs by MTT assay relative to control. Format: functional. Particulars: read-out: Activity.
A further data set has as its system MCF7. The experiment in a line: Antiproliferative activity against human MCF7 cells assessed as growth rate at 10 uM incubated for 48 hrs by MTT assay relative to control. Format: functional. The settings on record: read-out: Activity.
Data set [2] addresses RAC-alpha serine/threonine-protein kinase (Homo sapiens) (UniProt P31749). The data set can be described thus: Inhibition of AKT phosphorylation in serum starved bFGF stimulated HFF cells at 20 uM preincubated for 10 mins followed by bFGF addition and measured after 20 mins by Western blotting analysis. It counts as cell-based. The settings on record: time 30.0 min.
The subject of another data set is HeLa. The data set can be described thus: Antiproliferative activity against human HeLa cells assessed as growth rate at 10 uM incubated for 48 hrs by MTT assay relative to control. Format: functional. Particulars: read-out: Activity.
For a further data set, the system named is HUVEC. The data set can be described thus: Antiangiogenic activity in confluent VEGF stimulated HUVEC cells assessed as inhibition of cell migration at 20 uM incubated for 24 to 48 hrs by Hoechst 33342 staining based wound healing assay. Format: functional. The settings on record: Homo sapiens, time 24-48 hrs.
Data set [3] can be described thus: Cytotoxicity against human GM06114 cells assessed as growth rate at 10 uM incubated for 48 hrs by MTT assay relative to control. Format: toxicity, cell-based. Particulars: gm06114, 48 h.
The test system of the next data set is HFF. The experiment in a line: Antiangiogenic activity in confluent HFF cells assessed as inhibition of cell migration at 20 uM incubated for 24 to 48 hrs by Hoechst 33342 staining based wound healing assay. It counts as functional. The settings on record: Homo sapiens, time 24-48 hrs.
The subject of another data set is SK-OV-3. The experiment in a line: Antiproliferative activity against human SK-OV-3 cells assessed as growth rate at 10 uM incubated for 48 hrs by MTT assay relative to control. It counts as functional. Particulars: read-out: Activity.
Data set [4] concerns the target RAC-alpha serine/threonine-protein kinase (Homo sapiens) (UniProt P31749). The data set can be described thus: Inhibition of AKT phosphorylation in serum starved VEGF stimulated HUVEC cells at 20 uM preincubated for 10 mins followed by VEGF addition and measured after 20 mins by Western blotting analysis relative to control. Format: cell-based. The settings on record: time 30.0 min.

Chain of Mitogen-activated protein kinase; ERK1/ERK2 (Homo sapiens) (P27361 whole entry, looked up): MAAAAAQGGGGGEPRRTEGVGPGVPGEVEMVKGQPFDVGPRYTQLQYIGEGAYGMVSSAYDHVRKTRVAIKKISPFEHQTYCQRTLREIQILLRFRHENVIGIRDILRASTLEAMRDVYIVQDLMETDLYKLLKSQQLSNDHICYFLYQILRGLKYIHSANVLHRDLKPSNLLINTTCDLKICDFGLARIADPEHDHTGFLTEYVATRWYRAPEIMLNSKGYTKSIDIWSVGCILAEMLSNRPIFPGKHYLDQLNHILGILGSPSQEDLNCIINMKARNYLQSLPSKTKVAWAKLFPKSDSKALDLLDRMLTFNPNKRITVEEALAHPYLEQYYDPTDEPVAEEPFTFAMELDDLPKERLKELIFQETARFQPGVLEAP
Chain of Mitogen-activated protein kinase; ERK1/ERK2 (Homo sapiens) (P28482 whole entry, looked up): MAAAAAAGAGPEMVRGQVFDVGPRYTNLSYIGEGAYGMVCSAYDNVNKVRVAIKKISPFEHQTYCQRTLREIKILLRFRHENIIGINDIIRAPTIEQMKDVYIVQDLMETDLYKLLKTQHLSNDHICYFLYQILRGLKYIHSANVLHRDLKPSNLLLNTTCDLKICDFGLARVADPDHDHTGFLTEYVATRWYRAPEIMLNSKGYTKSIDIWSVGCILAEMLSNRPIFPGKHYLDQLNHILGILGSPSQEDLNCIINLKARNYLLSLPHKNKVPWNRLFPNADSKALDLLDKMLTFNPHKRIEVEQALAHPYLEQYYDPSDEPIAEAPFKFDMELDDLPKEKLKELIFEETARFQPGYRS
Chain of RAC-alpha serine/threonine-protein kinase (Homo sapiens) (P31749 whole entry): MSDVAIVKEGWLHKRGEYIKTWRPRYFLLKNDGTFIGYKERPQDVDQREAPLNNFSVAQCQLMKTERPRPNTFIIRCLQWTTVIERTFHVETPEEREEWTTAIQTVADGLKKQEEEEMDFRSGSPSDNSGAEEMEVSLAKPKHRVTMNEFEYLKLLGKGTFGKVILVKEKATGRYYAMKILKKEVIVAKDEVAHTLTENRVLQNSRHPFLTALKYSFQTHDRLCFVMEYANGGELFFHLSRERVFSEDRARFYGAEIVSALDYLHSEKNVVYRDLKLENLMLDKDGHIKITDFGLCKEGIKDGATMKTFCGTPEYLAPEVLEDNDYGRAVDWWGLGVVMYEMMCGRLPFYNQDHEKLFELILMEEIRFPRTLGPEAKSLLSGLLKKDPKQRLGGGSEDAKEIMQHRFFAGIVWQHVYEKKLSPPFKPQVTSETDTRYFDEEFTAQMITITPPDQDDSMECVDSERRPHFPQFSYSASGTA

Take `CCCCC(Cn1nc(Nc2ccc(C)cc2)c(C(=O)OCC)c1N)OC(=O)Nc1cccc(C(F)(F)F)c1` (centres undefined): the growth at 10 µM worked out at 123% with SK-MEL-28; 149% in the data set with MDA-MB-231; 111% in the data set on HepG2; 110% with SK-BR-3; 112% in the data set on A549; 143% in the data set with MCF7. For the same compound, the growth at 10 µM in the data set on HeLa came to 97%; in the data set with SK-OV-3, 129%. In addition, the results for the Activity in data set [1] and in [3] were more than 70% and 99.16%, respectively. Moreover, the inhibition result in data set [2] is “inactive”. The outcome in the data set with HUVEC and with HFF was inactive.

For the compound `CCCCC(O)Cn1nc(Nc2ccccc2C)c(C(=O)OCC)c1N` (centres undefined), the growth at 10 µM in the data set with SK-MEL-28 was determined as 121%; with MDA-MB-231, 127%; in the data set on HepG2 it was 99.9%; in the data set with SK-BR-3, 110%; in the data set with A549, 127%; in the data set with MCF7, 118%. The results for the growth at 10 µM with HeLa and in the data set with SK-OV-3 were 99% and 115%, respectively. Further, the Activity in data set [1] was more than 70%; in data set [3], 114.61%. For the same compound, the inhibition result in data set [2] is “Active”. This compound also came in with an inhibition in data set [4] of 43%. For the same compound, the result in the data set on HUVEC was inactive. Also, the outcome in the data set on HFF was Active.

`CCCCC(Cn1nc(Nc2ccccc2)c(C(=O)OCC)c1N)OC(=O)Nc1cccc(C(F)(F)F)c1` (centres undefined): the growth at 10 µM with SK-MEL-28 amounted to 123%; with MDA-MB-231, 126%; in the data set with HepG2 it was 107%; in the data set with SK-BR-3 it was 112%; in the data set with A549, 98.1%; in the data set on MCF7, 141%. For the same compound, the results for the growth at 10 µM with HeLa and in the data set on SK-OV-3 were 85.8% and 113%, respectively. The Activity in data set [1] is more than 70%; in data set [3], 96.63%. Moreover, the inhibition entry in data set [2] was “inactive”. Besides, the outcome with HUVEC and in the data set with HFF was inactive.

As to `CCOC(=O)c1c(Nc2ccc(C)cc2)nn(CC(OC(=O)Nc2cccc(C(F)(F)F)c2)c2ccccc2)c1N` (centres undefined), the growth at 10 µM in the data set on SK-MEL-28 was 129%; in the data set on MDA-MB-231, 124%; in the data set on HepG2 it was 122%; in the data set with SK-BR-3, 124%; in the data set on A549 it was 98.4%; in the data set on MCF7 it was 129%. The results for the growth at 10 µM in the data set with HeLa and in the data set with SK-OV-3 were 81.4% and 131%, respectively. In addition, the Activity is more than 70% in [1] and 126.2% in [3]. The inhibition result in data set [2] is “inactive”. Moreover, the result with HUVEC and in the data set with HFF was inactive.

Regarding `CCCCC(O)Cn1nc(Nc2cccc(Cl)c2)c(C(=O)OCC)c1N` (centres undefined), the growth at 10 µM in the data set on SK-MEL-28 turned out to be 106%; in the data set with MDA-MB-231 it was 140%; with HepG2, 108%; with SK-BR-3, 108%; in the data set with A549, 136%; in the data set with MCF7, 137%. Moreover, the values for the growth at 10 µM with HeLa and with SK-OV-3 were 117% and 128%, respectively. The results for the Activity in data set [1] and in data set [3] were more than 70% and 92.22%, respectively. For the same compound, in [2], the inhibition result is “inactive”. The result in the data set with HUVEC was inactive. Also, in the data set with HFF, the outcome was Active.

On to `CCCCC(Cn1nc(Nc2ccc(Cl)cc2)c(C(=O)OCC)c1N)OC(=O)Nc1cccc(C(F)(F)F)c1` (centres undefined), for which the growth at 10 µM worked out at 136% in the data set on SK-MEL-28; 117% with MDA-MB-231; 110% in the data set with HepG2; 118% with SK-BR-3; 90.7% in the data set on A549; 107% with MCF7. The growth at 10 µM with HeLa was 76.5%; in the data set with SK-OV-3, 106%. Moreover, the Activity in [1] was more than 70%; in data set [3] it was 111.34%. In data set [2], the inhibition entry is “inactive”. The outcome in the data set with HUVEC and in the data set on HFF was inactive.
